Each structure is given as a SMILES string. Like-named read-outs stand apart in the source and are kept apart here.

For the assay, the system named is HCT116 MTAP-deleted cell lines. In words: Cell viability assay (CellTiter-Glo, 7 days), HCT116 MTAP-deleted. The assay is classed as cell-based. Conditions: Homo sapiens, HCT-116, HCT116 MTAP-deleted, class symbols, read-out: CC50. On the procedure: Control compounds were analyzed in parallel each time for quality control. In Brief, on Day -1, a serial dilution of stock compounds in DMSO was performed using BioMek liquid handlers and dispensed using Echo acoustic dispenser into 384 well plates. Both tool compounds and sample compounds were spotted in the same plate for a dose response of PRMT5 inhibitors. Compound plates were stored as frozen until the cells were ready for seeding. […] After equilibrating the plate in room temperature, the cells were incubated for 7 days inside the sealed incubator set at 37° C. with 90% humidity and 5% CO2. On Day 7, the viability of cells was measured using a CTG assay kit (CellTitre-Glo;Promega cat no. G7573). Shortly, 40 μl per well of luminescent cell viability assay reagent were dispensed using EL460 liquid dispenser 5 μl cassette. CTG luminescence signal was measured using an EnVision plate reader (PerkinElmer) in accordance with manufacturer's instruction. […] Selectivity with * is artificially high due to limited solubility of the compound hampering accurate measurement of WT CC50.
(In ATP-based viability assays light output follows the ATP content of the culture.)

On to `COC1(C#Cc2ccc3c(c2)OC[C@H]3N(C)C(=O)c2ccc3nc(N)c4cncn4c3c2)CC1` [Ff-531, (S)-4-amino-N-(6-((1-methoxycyclopropyl)ethynyl)-2,3-dihydrobenzofuran-3-yl)-N-methylimidazo[1,5-a]quinoxaline-8-carboxamide], for which the cytotoxic concentration (CC50) (in general, the concentration giving 50% cytotoxicity) (cell viability assay) was in the range of 0.1 to 1 µM.

With `Cc1ncc2c(N)nc3cnc(C(=O)N4CCO[C@@H]5Cc6cc(OC(F)(F)F)c(F)cc6[C@@H]54)cc3n12` [Ff-179, (4-amino-1-methylimidazo[1,5-a]pyrido[3,4-e]pyrazin-8-yl)((4aS,9aR)-6-fluoro-7-(trifluoromethoxy)-2,3,9,9a-tetrahydroindeno[2,1-b][1,4]oxazin-4(4aH)-yl)methanone], the cytotoxic concentration (CC50) (cell viability) was < 0.1 µM.

For `Nc1nc2cc(F)c(C(=O)N3CCC[C@@H]4Oc5cc(F)c(F)cc5[C@@H]43)cc2n2cncc12` (racemic) [Ff-101, Rac-(4-amino-7-fluoroimidazo[1,5-a]quinoxalin-8-yl)((4aS,9bS)-7,8-difluoro-3,4,4a,9b-tetrahydrobenzofuro[3,2-b]pyridin-1(2H)-yl)methanone], under “cell viability”, the CC50 fell in the range of 0.1 to 1 µM.

For `Nc1nc2cc(F)c(C(=O)N(Cc3ccc(C(F)(F)F)cn3)C34COC(C3)C4)cc2n2cncc12` [Ff-268, 4-amino-N-(2-oxabicyclo[2.1.1]hexan-4-yl)-7-fluoro-N-((5-(trifluoromethyl)pyridin-2-yl)methyl)imidazo[1,5-a]quinoxaline-8-carboxamide], the 50% cytotoxic concentration (CC50) (cell viability) is < 0.1 µM.

Take `Cc1ncn2c1c(N)nc1cnc(C(=O)N3CCC[C@@H]4Oc5cc(OC(F)(F)F)ccc5[C@@H]43)cc12` [Fg-30, (4-amino-3-methylimidazo[1,5-a]pyrido[3,4-e]pyrazin-8-yl)((4aS,9bS)-7-(trifluoromethoxy)-3,4,4a,9b-tetrahydrobenzofuro[3,2-b]pyridin-1(2H)-yl)methanone]: for the setting “cell viability assay”, the CC50 is < 0.1 µM.

In the case of `Cc1ncc2c(N)nc3ccc(C(=O)N4CCC[C@@H]5Oc6c(ccc(C(F)(F)F)c6F)[C@@H]54)cc3n12` [Ff-122, (4-amino-1-methylimidazo[1,5-a]quinoxalin-8-yl)((4aS,9bS)-6-fluoro-7-(trifluoromethyl)-3,4,4a,9b-tetrahydrobenzofuro[3,2-b]pyridin-1(2H)-yl)methanone], the CC50 (cell viability) was < 0.1 µM.

On to `CC(C)N(Cc1ccc(-c2cnn(-c3ccccc3)c2)cc1F)C(=O)c1cc2c(cc1F)nc(N)c1cncn12` [Ff-593, 4-amino-7-fluoro-N-(2-fluoro-4-(1-phenyl-1H-pyrazol-4-yl)benzyl)-N-isopropylimidazo[1,5-a]quinoxaline-8-carboxamide], for which, where the note is “cell viability assay”, the cytotoxic concentration (CC50) was < 0.1 µM.

`Cc1ncn2c1c(N)nc1cnc(C(=O)N3C[C@H](C)O[C@@H]4Cc5cc(C(F)(F)F)ccc5[C@@H]43)cc12` [Ff-498, (4-amino-3-methylimidazo[1,5-a]pyrido[3,4-e]pyrazin-8-yl)((2S,4aS,9aR)-2-methyl-7-(trifluoromethyl)-2,3,9,9a-tetrahydroindeno[2,1-b][1,4]oxazin-4(4aH)-yl)methanone]: the CC50 (cell viability assay) is < 0.1 µM.

For `Nc1nc2cc(F)c(C(=O)N3C[C@H](F)CC[C@@H]3c3ccc(C(F)(F)F)cn3)cc2n2cncc12` (single isomer, unassigned) [Ff-244], the half-maximal cytotoxic concentration (CC50) (cell viability) is < 0.1 µM.

`CC(=O)N(C)N(Cc1ccc(C(F)(F)F)cc1Cl)C(=O)c1ccc2nc(N)c3cncn3c2c1` [Fb-17, N′-acetyl-4-amino-N-(2-chloro-4-(trifluoromethyl)benzyl)-N′-methylimidazo[1,5-a]quinoxaline-8-carbohydrazide]: under “cell viability”, the CC50 is < 0.1 µM.

In the case of `C[C@@H]1C[C@@H]2Oc3cc(OC(F)(F)F)ccc3[C@@H]2N(C(=O)c2cc3c(cc2F)nc(N)c2cncn23)C1` [Ff-500, (4-amino-7-fluoroimidazo[1,5-a]quinoxalin-8-yl)((3R,4aS,9bS)-3-methyl-7-(trifluoromethoxy)-3,4,4a,9b-tetrahydrobenzofuro[3,2-b]pyridin-1(2H)-yl)methanone], the cytotoxic concentration (CC50) (cell viability assay) was < 0.1 µM.

Consider `Cc1ncn2c1c(N)nc1cnc(C(=O)N3C[C@H](F)CC4Oc5cc(C(F)(F)F)ccc5C43)cc12` (mixture of isomers) [Ff-650, Rac-(4-amino-3-methylimidazo[1,5-a]pyrido[3,4-e]pyrazin-8-yl)((3R,4aS,9bS)-3-fluoro-7-(trifluoromethyl)-3,4,4a,9b-tetrahydrobenzofuro[3,2-b]pyridin-1(2H)-yl)methanone], for which the half-maximal cytotoxic concentration (CC50) (cell viability assay) is < 0.1 µM.

For `CN(C(=O)c1cc2c(cc1F)nc(N)c1cncn12)[C@@H]1COc2cc(C34CC(C3)C4)ccc21` [Ff-444, 4-amino-N-[(3S)-6-(1-bicyclo[1.1.1]pentanyl)-2,3-dihydrobenzofuran-3-yl]-7-fluoro-N-methyl-imidazo[1,5-a]quinoxaline-8-carboxamide], the CC50 (cell viability assay) was < 0.1 µM.

Take `Cc1ncn2c1c(N)nc1cc(F)c(C(=O)N3C[C@H](C)C[C@@H]4Oc5cc(C(F)(F)F)ncc5[C@@H]43)cc12` [Fg-21, (4-amino-7-fluoro-3-methylimidazo[1,5-a]quinoxalin-8-yl)((3R,4aS,9bS)-3-methyl-7-(trifluoromethyl)-3,4,4a,9b-tetrahydrofuro[3,2-b:4,5-c′]dipyridin-1(2H)-yl)methanone]: the cytotoxic concentration (CC50) (cell viability assay) was < 0.1 µM.

Consider `Cc1ncc2c(N)nc3ccc(C(=O)N(C)[C@@H]4COc5c4ccc(C(F)(F)F)c5F)cc3n12` [Ff-355, (S)-4-amino-N-(7-fluoro-6-(trifluoromethyl)-2,3-dihydrobenzofuran-3-yl)-N,1-dimethylimidazo[1,5-a]quinoxaline-8-carboxamide], for which, under “cell viability”, the CC50 lay in the range of 0.1 to 1 µM.

For the molecule `Nc1nc2ccc(C(=O)N(Cc3ccc(OC(F)F)cc3F)C34CC(C3)C4)cc2n2cncc12` [Ff-264, 4-amino-N-(bicyclo[1.1.1]pentan-1-yl)-N-(4-(difluoromethoxy)-2-fluorobenzyl)imidazo[1,5-a]quinoxaline-8-carboxamide], the 50% cytotoxic concentration (CC50) (cell viability) is 0.1 to 1 µM.

As to `CN(C(=O)c1cc2c(cc1F)nc(N)c1cncn12)[C@@H]1COc2cc(Cl)c(F)cc21` (single isomer, unassigned) [Ff-597], the CC50 (cell viability assay) was < 0.1 µM.

As to `Nc1nc2cc(F)c(C(=O)N3CCC[C@@H]4Oc5cc(OC(F)(F)F)c(F)cc5[C@@H]43)cc2n2cncc12` (single isomer, unassigned) [Ff-396], the half-maximal cytotoxic concentration (CC50) (cell viability assay) was < 0.1 µM.

For `CN(C(=O)c1cc2c(cc1F)nc(N)c1cncn12)[C@@H]1COc2cc(C(F)F)c(Cl)cc21` [Ff-653, (S)-4-amino-N-(5-chloro-6-(difluoromethyl)-2,3-dihydrobenzofuran-3-yl)-7-fluoro-N-methylimidazo[1,5-a]quinoxaline-8-carboxamide], the CC50 (cell viability assay) was < 0.1 µM.

Regarding `CCN(C(=O)c1cc2c(cc1F)nc(N)c1cncn12)[C@H](C)c1ncc(C(F)(F)F)cc1F` [Ff-538, (R)-4-amino-N-ethyl-7-fluoro-N-(1-(3-fluoro-5-(trifluoromethyl)pyridin-2-yl)ethyl)imidazo[1,5-a]quinoxaline-8-carboxamide], the CC50 (cell viability assay) is < 0.1 µM.

As to `CN(C(=O)c1cc2c(cc1F)nc(N)c1cncn12)[C@@H]1COc2cc(C#CC3(C(F)F)CCOCC3)ccc21` [Ff-437, (S)-4-amino-N-(6-((4-(difluoromethyl)tetrahydro-2H-pyran-4-yl)ethynyl)-2,3-dihydrobenzofuran-3-yl)-7-fluoro-N-methylimidazo[1,5-a]quinoxaline-8-carboxamide], the CC50 (cell viability assay) was < 0.1 µM.

Turning to `Cc1cc2c(cc1Br)[C@H](N(C)C(=O)c1cc3c(cc1F)nc(N)c1cncn13)CO2` [Ff-460, (S)-4-amino-N-(5-bromo-6-methyl-2,3-dihydrobenzofuran-3-yl)-7-fluoro-N-methylimidazo[1,5-a]quinoxaline-8-carboxamide], under “cell viability assay”, the CC50 is < 0.1 µM.

With `C[C@H]1CN(C(=O)c2cc3c(cc2F)nc(N)c2cnc(Br)n23)[C@H]2c3ccc(C(F)(F)F)cc3C[C@H]2O1` (single isomer, unassigned) [Ff-496], the 50% cytotoxic concentration (CC50) (cell viability assay) lay within 0.1 to 1 µM.

With `CO[C@@H]1Cc2cc(C(F)(F)F)ccc2[C@@H]1N(C)C(=O)c1cc2c(cc1F)nc(N)c1cncn12` [Ff-581, 4-amino-7-fluoro-N-((1S,2R)-2-methoxy-5-(trifluoromethyl)-2,3-dihydro-1H-inden-1-yl)-N-methylimidazo[1,5-a]quinoxaline-8-carboxamide], where the note is “cell viability assay”, the CC50 was in the range of 0.1 to 1 µM.

For `CN(Cc1ccc(OCC(F)(F)F)cc1)C(=O)c1cc2c(cc1F)nc(N)c1cncn12` [Ff-433, 4-amino-7-fluoro-N-methyl-N-[[4-(2,2,2-trifluoroethoxy)phenyl]methyl]imidazo[1,5-a]quinoxaline-8-carboxamide], under “cell viability assay”, the CC50 lay within 0.1 to 1 µM.

With `CN(C(=O)c1cc2c(cc1F)nc(N)c1cncn12)[C@@H]1COc2cc(C#CC(C)(C)F)ccc21` [Ff-447, 4-amino-7-fluoro-N-[(3S)-6-(3-fluoro-3-methyl-but-1-ynyl)-2,3-dihydrobenzofuran-3-yl]-N-methyl-imidazo[1,5-a]quinoxaline-8-carboxamide], the 50% cytotoxic concentration (CC50) (cell viability assay) is < 0.1 µM.

As for `CC1(C)CN(C(=O)c2cc3c(cc2F)nc(N)c2cncn23)CC1c1ccccc1` (stereo not shown) [Ff-2, (4-amino-7-fluoroimidazo[1,5-a]quinoxalin-8-yl)(3,3-dimethyl-4-phenylpyrrolidin-1-yl)methanone], the CC50 (cell viability) lay in the range of 0.1 to 1 µM.

Take `C[C@@H]1CC[C@@H]2Oc3cc(C(F)(F)F)ccc3[C@@H]2N1C(=O)c1cc2c(cc1F)nc(N)c1cncn12` (racemic) [Ff-100, Rac-(4-amino-7-fluoroimidazo[1,5-a]quinoxalin-8-yl)((2R,4aS,9bS)-2-methyl-7-(trifluoromethyl)-3,4,4a,9b-tetrahydrobenzofuro[3,2-b]pyridin-1(2H)-yl)methanone]: the CC50 (cell viability) is < 0.1 µM.

The record behind these values is patent US12448388B2, “PRMT5 inhibitors and uses thereof” (Gilead Sciences, Inc., priority 2023, dated 2025).
